Assays:
[1] = system: mechanical hyperalgesia of the affected hind paw; assay: Mechanical hyperalgesia (von Frey foot withdrawal) after L5 spinal nerve ligation; format: in vivo; conditions: SNL mice, PBN 150 mg/kg i.p. or 100 μg i.t.
Method: Inhibition of neuron death using one of the anti-oxidant agents described above is examined in a spinal injury model as described below. The oxidation inhibitor used is phenyl-N-tert-butylnitrone, a ROS scavenger. Peripheral nerve injury is induced by tightly ligating the L5 spinal nerve under isoflurane anesthesia (2% induction and 1.5% maintenance). Seven days after SNL, mice are randomly divided into treatment and control groups. Mice belonging to one treatment group are injected by one of two different routes with phenyl-N-tert-butylnitrone, PBN (Sigma, St. Louis, Mo.). Doses of PBN used are 150 mg/kg (i.p., 0.1 ml) or 100 μg (i.t., 5 μl), dissolved in saline at a concentration of 20 mg/ml. Mice in the control groups are treated with the same volume of saline. […]
Pain behavior is tested by assessing mechanical hyperalgesia of the affected hind paw. […] Mechanical hyperalgesia of the hind paw is measured by determining the frequency of foot withdrawals to 10 stimuli applied with a von Frey (vF) filament (Stoelting, Wood Dale, Ill.). […] Response rates are calculated as a percentage of the number of positive responses/10 stimuli.

GABA neurons = assay: Whole-cell patch recording in lumbar spinal cord slices; format: cell-based, mouse; conditions: spinal cord slices of PBN treated mice
rat limbic system = conditions: pretreatment of rats, systemic kainic acid seizure; cited from earlier work

SMILES | foot withdrawal to von Frey filament (pain behavior) [1] | action potential discharge (excitatory) pattern of surviving neurons (GABA neurons) | excitability and firing activity of GABA neurons (GABA neurons) | activator protein-1- and NF-kB-binding activity (rat limbic system) | increased protein nitration (rat limbic system) | neuronal damage resulting from seizure activity in limbic structures (rat limbic system) | spectrin proteolysis (rat limbic system)
CC(C)(C)[N+]([O-])=Cc1ccccc1 [PBN, phenyl-N-tert-butylnitrone] | withdraw their foot less abruptly | superior action potential discharge (excitatory) pattern | restore excitability and prevent suppression of firing activity |  |  |  | 
COc1cccc(C=NCCN=Cc2cccc(OC)c2[O-])c1[O-].[Cl-].[Mn+3] [EUK-134] |  |  |  | reduction | reduction | reduction | reduction

From patent US11911504B2, “Apparatus and method for protecting neurons and reducing inflammation and scarring” (GALEN THERAPEUTICS LLC, priority 2018, dated 2024)
